Literature values in patent publication US10813882B1, “In situ gelling formulation for reduced initial drug burst” (King Abdulaziz University, priority 2019, dated 2020).

Experiments:
[1] = in vivo

CC(C)c1nc(N(C)S(C)(=O)=O)nc(-c2ccc(F)cc2)c1/C=C/[C@@H](O)C[C@@H](O)CC(=O)O [RSV, Rosuvastatin]
bound to plasma protein (plasma protein): 88% | solubility in organic solvent such as DMSO and DMF (DMSO, dimethyl formamide): soluble | solubility in ethanol (ethanol): marginally soluble | bioavailability [1]: 20% | effect of food on the amount absorbed [1]: does not affect | time to maximum plasma level [1]: 3 to 5 h
